This note sets out measurements from patent US8877758B2, “Combinations of medicaments, containing PDE4-inhibitors and EP4-receptor-antagonists” (Boehringer Ingelheim International GmbH, priority 2010, dated 2014).

For data set [1], the system named is male Wistar rats. Description: Experiment 4: four-day oral treatment of rats, roflumilast-mediated effects with or without AH-6809. It is filed as in vivo, rat. As for the experimental part: group 2 (“AH-6809 group”): Six male Wistar rats were given a daily dosage of 10 mg/kg AH-6809 (preferential EP2 antagonist) at 1300 hours.
In data set [2] the test system is male Wistar rats. As to the kind of experiment: Experiment 2: four-day oral treatment of rats, roflumilast-mediated effects with or without SC-560 or Lumiracoxib. The class given is in vivo, rat. An excerpt:
For pharmacokinetic analysis (determining plasma levels of the substances) one rat from each group was used on day 4; these rats were no longer available for the investigation of other parameters.

In data set [3] the test system is male Wistar rats. As to the kind of experiment: Experiment 3: four-day oral treatment of rats, roflumilast-mediated effects with or without MF-498. The class given is in vivo, rat. The note with it: 20 mg/kg MF-498 p.o. at 1300 hours, four days, no roflumilast. As for the experimental part: group 2 (“MF-498 group”): Six male Wistar rats were given a daily dosage of 20 mg/kg MF-498 (EP4 antagonist) in each case at 1300 hours.

Data set [4] deals with male Wistar rats. The description is as above. It is filed as in vivo, rat.
Data set [5] concerns male Wistar rats. Description: Experiment 1: four-day oral treatment of rats, roflumilast-mediated effects with or without diclofenac.
Description: Six male Wistar rats in each group were treated for four days with the following substances (all substances are given p.o.=orally):
Group 1 (“control group”): Six male Wistar rats were given a daily dose of 0.5% Natrosol (placebo) at the times 0800, 1300 and 1700 hours.
Group 2 (“diclofenac group”): Six male Wistar rats were given a daily dose of 1 mg/kg of diclofenac (NSAID) at the times 0800 and 1700 hours and 0.5% Natrosol (placebo) at 1300 hours.
Group 3 (“roflumilast group”): Six male Wistar rats were given a daily dose of 0.5% Natrosol (placebo) at 0800 and 1700 hours and 10 mg/kg roflumilast (PDE4 inhibitor) at 1300 hours.
Group 4 (“roflumilast+diclofenac group”): Six male Wistar rats were given a daily dose of 1 mg/kg diclofenac (NSAID) at the times 0800 and 1700 hours and 10 mg/kg roflumilast (PDE4 inhibitor) at 1300 hours.
For pharmacokinetic analysis (determining the plasma levels of the substances) on day 4 one rat from each group was used; these rats were no longer available for other parameters under investigation.
During the experiment the body weights of the animals were determined and the differences in the body weights of the rats from the different groups towards the end of the experiment were shown as a percentage change from the time of the first administration (=day 1, 0800 hours (=time t0)). The average±standard deviation of the body weights at time t0 was 355±17 g.
At the end of the experiment (day 5, 95 hours after t0 (t0=the time of the first administration on day 1, 0800)) the proportion of neutrophils (in % of white blood cells, FIG. 2) were determined from the blood of 4 or 5 of the rats from the individual groups. In addition, the weights of the animals' spleens were measured and the mesenteries were dissected for histopathological investigation for vasculitis (multifocal perivascular mononuclear/polymorphonuclear infiltration).
The mark [6] stands for this setting: AH-6809 and 10 mg/kg Roflumilast p.o. at 1300 hours, four days.
The mark [7] stands for this setting: 2 mg/kg p.o. at 0800 and 1700 hours + 10 mg/kg Roflumilast at 1300 hours, four days.
The mark [8] stands for this setting: 20 mg/kg MF-498 and 10 mg/kg Roflumilast p.o. at 1300 hours, four days.
Setting [9] is: 10 mg/kg Roflumilast p.o. at 1300 hours for four days, read-out day 5, 95 hours after t0.
Where [10] appears, read: 1 mg/kg diclofenac p.o. at 0800 and 1700 hours + 10 mg/kg roflumilast at 1300 hours, four days.

“Also recorded” adds a separate entry of the source.

`CC(C)Oc1ccc2c(=O)c3cc(C(=O)O)ccc3oc2c1` [AH6809, 6-isopropoxy-9-oxoxanthene-2-carboxylic acid]: the “parameters measured after administration on its own (body weight, spleen weight, neutrophils, mesenteric vasculitis)” value (“parameters measured after administration” for short) in data set [1] (10 mg/kg AH-6809 p.o. at 1300 hours, four days, no roflumilast) was “very similar to the control group”. In data set [1] (setting [6]), the “influence of co-administration on roflumilast-mediated loss of body weight (FIG. 13)” value was “no indications that the EP2 preferential receptor antagonist AH-809 had any influence”; the “influence of co-administration on roflumilast-mediated loss of spleen weight (FIG. 14)” value is “no indications that the EP2 preferential receptor antagonist AH-809 had any influence”; the “influence of co-administration on roflumilast-mediated mesenteric vasculitis (monocyte/polymorphonuclear perivascular infiltration, FIG. 16)” value is recorded as “no indications that the EP2 preferential receptor antagonist AH-809 had any influence”; the “influence of co-administration on roflumilast-mediated neutrophilia (FIG. 15)” value is “no indications that the EP2 preferential receptor antagonist AH-809 had any influence”.

In the case of `Cc1ccc(Nc2c(F)cccc2Cl)c(CC(=O)O)c1` [Lumiracoxib], in data set [2] (setting [7]), the “effect of co-administration on roflumilast-mediated loss of body weight (FIG. 5)” value is recorded as “substantially reduced or prevented”; the “effect of co-administration on roflumilast-mediated loss of spleen weight (FIG. 6)” value is on record as “substantially reduced or prevented”; the “effect of co-administration on roflumilast-mediated mesenteric vasculitis (monocyte/polymorphonuclear perivascular infiltration, FIG. 8)” value is given as “substantially reduced or prevented”; the “effect of co-administration on roflumilast-mediated neutrophilia (FIG. 7)” value is recorded as “substantially reduced or prevented”. Moreover, the “parameters measured after administration” value in data set [2] (2 mg/kg p.o. at 0800 and 1700 hours, four days, no roflumilast) was “very similar to the control groups”.

Consider `CCOc1c2c(c(OCC)c3ncccc13)CN(c1ccc(CS(=O)(=O)NC(=O)Cc3ccccc3OC)cc1C)C2=O` [MF-498, N-{[4-(5,9-diethoxy-6-oxo-6,8-dihydro-7H-pyrrolo(3,4-g)quinolin-7-yl)-3-methylbenzyl)sulphonyl}-2-(2-methoxyphenyl)acetamide], for which the “parameters measured after administration” value in data set [3] is on record as “very similar to the control group”. Further, in data set [4] (setting [8]), the “effect of co-administration on roflumilast-mediated loss of body weight (FIG. 9)” value is reported as “substantially reduced”; the “effect of co-administration on roflumilast-mediated loss of spleen weight (FIG. 10)” value is “substantially reduced”; the “effect of co-administration on roflumilast-mediated mesenteric vasculitis (monocyte/polymorphonuclear perivascular infiltration, FIG. 12)” value is “substantially reduced”; the “effect of co-administration on roflumilast-mediated neutrophilia (FIG. 11)” value was “substantially reduced”. Further, in data set [4] (20 mg/kg MF-498 and 10 mg/kg Roflumilast p.o., one animal of the Roflumilast group had an unusually small loss of spleen weight), the “differences in the weight of the spleen between the Roflumilast group and the Roflumilast+MF-498 group (statistics)” value is listed as “do not achieve statistical significance”.

Consider `O=C(Nc1c(Cl)cncc1Cl)c1ccc(OC(F)F)c(OCC2CC2)c1` [Roflumilast], for which the “PDE4 inhibitor-mediated side effects observed in the Roflumilast group” value in data set [2] (setting [9]), in data set [1] (setting [9]) and in data set [4] (setting [9]) was “loss of body weight; also recorded: loss of spleen weight; also recorded: neutrophilia; also recorded: mesenteric vasculitis” each time. For the same molecule, the “death of animals in the roflumilast group” value in data set [5] (10 mg/kg roflumilast p.o. daily, six rats per group) is “died between day 4 and day 5”.

Consider `O=C(O)Cc1ccccc1Nc1c(Cl)cccc1Cl` [diclofenac], for which, in data set [5] (setting [10]), the “effect of co-administration on roflumilast-mediated loss of body weight (FIG. 1)” value is given as “substantially reduced or prevented”; the “effect of co-administration on roflumilast-mediated loss of spleen weight (FIG. 2)” value was “substantially reduced or prevented”; the “effect of co-administration on roflumilast-mediated mesenteric vasculitis (monocyte/polymorphonuclear infiltration into the mesentery, FIG. 4)” value was “substantially reduced or prevented”; the “effect of co-administration on roflumilast-mediated neutrophilia (FIG. 3)” value is “substantially reduced or prevented”. Besides, the “parameters measured after administration” value in data set [5] (1 mg/kg diclofenac p.o. at 0800 and 1700 hours, four days, no roflumilast) was “very similar to the control groups”.
